According to patent publication US8431702B2, “Therapeutically useful substituted hydropyrido [3,2,1-ij] quinoline compounds” (Allergan, Inc., priority 2008, dated 2013):
Where two headings read alike, the source gives them in different places.

Biological target: T1, human S1P3 receptor (Homo sapiens, UniProt Q99500)
T1 construct: expressed in transfected cells
Test: FLIPR calcium (Fluo-4) assay for activation or block of activation of human S1P3 receptor in T24 cells
Type: cell-based
Description: The compounds of the invention are assessed for their ability to activate or block activation of the human S1P3 receptor in T24 cells stably expressing the human S1P3 receptor using the method described in paragraph [0067] of United States Patent Application Publication No. 20070232682, which published on Oct. 4, 2007, which is hereby incorporated by reference in its entirety.
Ten thousands cells/well are plated into 384-well poly-D-lysine coated plates one day prior to use. The growth media for the S1P3 receptor expressing cell line is McCoy's 5A medium supplemented with 10% charcoal-treated fetal bovine serum (FBS), 1% antibiotic-antimycotic and 400 μg/ml geneticin. On the day of the experiment, the cells are washed twice with Hank's Balanced Salt Solution supplemented with 20 mM HEPES (HBSS/Hepes buffer). The cells are then dye loaded with 2 μM Fluo-4 diluted in the HBSS/Hepes buffer with 1.25 mM Probenecid and incubated at 37° C. for 40 minutes. Extracellular dye is removed by washing the cell plates four times prior to placing the plates in the FLIPR (Fluorometric Imaging Plate Reader, Molecular Devices). Ligands are diluted in HBSS/Hepes buffer and prepared in 384-well microplates. The positive control, Sphingosine-1-phosphate (S1P), is diluted in HBSS/Hepes buffer with 4 mg/ml fatty acid free bovine serum albumin. The FLIPR transfers 12.5 μl from the ligand microplate to the cell plate and takes fluorescent measurements for 75 seconds, taking readings every second, and then for 2.5 minutes, taking readings every 10 seconds. Compounds are tested over the concentration range of 0.61 nM to 10,000 nM. Data for calcium ion (Ca^+2) responses are obtained in arbitrary fluorescence units and not translated into Ca^+2 concentrations. IC50 values (nM) are determined through a […] analysis using the Levenburg Marquardt algorithm.

[1] = T24 cells stably expressing the human S1P3 receptor, tested over 0.61 nM to 10,000 nM
[2] = T24 cells stably expressing the human S1P3 receptor, tested over 0.61 nM to 10,000 nM, read-out: S1P3 IC50

T1 sequence (Q99500 whole entry): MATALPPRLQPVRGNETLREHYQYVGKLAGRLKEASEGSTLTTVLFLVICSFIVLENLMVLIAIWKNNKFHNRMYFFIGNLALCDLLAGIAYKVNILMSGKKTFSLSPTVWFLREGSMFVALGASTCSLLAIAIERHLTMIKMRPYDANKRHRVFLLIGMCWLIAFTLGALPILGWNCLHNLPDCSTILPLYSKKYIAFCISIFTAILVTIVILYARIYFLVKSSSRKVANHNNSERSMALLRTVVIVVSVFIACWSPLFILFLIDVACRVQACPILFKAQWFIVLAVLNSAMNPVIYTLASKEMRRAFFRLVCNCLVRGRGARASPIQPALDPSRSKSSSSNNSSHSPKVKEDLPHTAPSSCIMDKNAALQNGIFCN

Compound | S1P3 % Inhibition [1] | IC50 [2] | IC50
CCNC(=O)Nc1cc2c3c(c1)C(c1ccccc1)CCN3CCC2c1ccccc1 (centres unmarked) [Compound 484, 1-(1,7-diphenyl-1,2,3,5,6,7-hexahydropyrido[3,2,1-ij]quinolin-9-yl)-3-ethylurea] | 101% | – | –
CCCCNC(=O)Nc1cc2c3c(c1)C(c1ccccc1)CCN3CCC2c1ccccc1 (centres unmarked) [Compound 485, 1-Butyl-3-(1,7-diphenyl-1,2,3,5,6,7-hexahydropyrido[3,2,1-ij]quinolin-9-yl)urea] | 100% | – | –
CCCCCNC(=O)Nc1cc2c3c(c1)C(c1ccccc1)CCN3CCC2c1ccccc1 (centres unmarked) [Compound 486, 1-(1,7-diphenyl-1,2,3,5,6,7-hexahydropyrido[3,2,1-ij]quinolin-9-yl)-3-pentylurea] | 100% | 82 nM | –
CCCCCCNC(=O)Nc1cc2c3c(c1)C(c1ccccc1)CCN3CCC2c1ccccc1 (centres unmarked) [Compound 487, 1-(1,7-diphenyl-1,2,3,5,6,7-hexahydropyrido[3,2,1-ij]quinolin-9-yl)-3-hexylurea] | 100% | – | –
CC(C)(C)NC(=O)Nc1cc2c3c(c1)[C@@](C)(c1ccccc1)CCN3CC[C@@]2(C)c1ccccc1 [Compound 580, 1-t-butyl-3-((1R,7S)-1,7-dimethyl-1,7-diphenyl-1,2,3,5,6,7-hexahydropyrido[3,2,1-ij]quinolin-9-yl)urea] | 99% | – | 62 nM
CC(C)(C)NC(=O)Nc1cc2c3c(c1)[C@](C)(c1ccccc1)CCN3CC[C@@]2(C)c1ccccc1 [Compound 581, 1-t-butyl-3-((1S,7S)-1,7-dimethyl-1,7-diphenyl-1,2,3,5,6,7-hexahydropyrido[3,2,1-ij]quinolin-9-yl)urea] | 98% | 349 nM | –
CSC(=O)Nc1cc2c3c(c1)[C@@](C)(c1ccccc1)CCN3CC[C@@]2(C)c1ccccc1 [Compound 582, S-methyl (1R,7S)-1,7-dimethyl-1,7-diphenyl-1,2,3,5,6,7-hexahydropyrido[3,2,1-ij]quinolin-9-ylcarbamothioate] | 99% | – | 4 nM
CSC(=O)Nc1cc2c3c(c1)[C@](C)(c1ccccc1)CCN3CC[C@@]2(C)c1ccccc1 [Compound 583, S-methyl (1S,7S)-1,7-dimethyl-1,7-diphenyl-1,2,3,5,6,7-hexahydropyrido[3,2,1-ij]quinolin-9-ylcarbamothioate] | 98% | – | 10 nM
CCCSC(=O)Nc1cc2c3c(c1)[C@@](C)(c1ccccc1)CCN3CC[C@@]2(C)c1ccccc1 [Compound 584, S-propyl (1R,7S)-1,7-dimethyl-1,7-diphenyl-1,2,3,5,6,7-hexahydropyrido[3,2,1-ij]quinolin-9-ylcarbamothioate] | 98% | – | 16 nM
CCCSC(=O)Nc1cc2c3c(c1)[C@](C)(c1ccccc1)CCN3CC[C@@]2(C)c1ccccc1 [Compound 585, S-propyl (1S,7S)-1,7-dimethyl-1,7-diphenyl-1,2,3,5,6,7-hexahydropyrido[3,2,1-ij]quinolin-9-ylcarbamothioate] | 98% | – | 5 nM
CSC(=O)Nc1cc2c3c(c1)[C@](C)(c1ccc(F)cc1)CCN3CC[C@@]2(C)c1ccc(F)cc1 [Compound 671, S-methyl (1S,7S)-1,7-bis(4-fluorophenyl)-1,7-dimethyl-1,2,3,5,6,7-hexahydropyrido[3,2,1-ij]quinolin-9-ylcarbamothioate] | 97% | – | 25 nM
CCCCOC(=O)Nc1cc2c3c(c1)[C@](C)(c1ccc(F)cc1)CCN3CC[C@@]2(C)c1ccc(F)cc1 [Compound 672, butyl (1S,7S)-1,7-bis(4-fluorophenyl)-1,7-dimethyl-1,2,3,5,6,7-hexahydropyrido[3,2,1-ij]quinolin-9-ylcarbamate] | 89% | – | 86 nM
CCCSC(=O)Nc1cc2c3c(c1)[C@](C)(c1ccc(F)cc1)CCN3CC[C@@]2(C)c1ccc(F)cc1 [Compound 673, S-propyl (1S,7S)-1,7-bis(4-fluorophenyl)-1,7-dimethyl-1,2,3,5,6,7-hexahydropyrido[3,2,1-ij]quinolin-9-ylcarbamothioate] | 97% | – | 62 nM
COC(=O)Nc1cc2c3c(c1)[C@](C)(c1ccc(F)cc1)CCN3CC[C@@]2(C)c1ccc(F)cc1 [Compound 674, methyl (1S,7S)-1,7-bis(4-fluorophenyl)-1,7-dimethyl-1,2,3,5,6,7-hexahydropyrido[3,2,1-ij]quinolin-9-ylcarbamate] | 96% | – | 46 nM
CSC(=O)Nc1cc2c3c(c1)C(c1ccccc1)CCN3CCC2c1ccccc1 (centres unmarked) [Compound 699] | 100% | 4 nM | –
CCCSC(=O)Nc1cc2c3c(c1)C(c1ccccc1)CCN3CCC2c1ccccc1 (centres unmarked) [Compound 700] | 100% | 7 nM | –
O=C(NCCCl)Nc1cc2c3c(c1)C(c1ccccc1)CCN3CCC2c1ccccc1 (centres unmarked) [Compound 769, 1-(2-chloroethyl)-3-(1,7-diphenyl-1,2,3,5,6,7-hexahydropyrido[3,2,1-ij]quinolin-9-yl)urea] | 100% | – | –
C=CCNC(=O)Nc1cc2c3c(c1)C(c1ccccc1)CCN3CCC2c1ccccc1 (centres unmarked) [Compound 773, 1-allyl-3-(1,7-diphenyl-1,2,3,5,6,7-hexahydropyrido[3,2,1-ij]quinolin-9-yl)urea] | 100% | – | –
CNC(=O)c1cc2c3c(c1)C(c1ccccc1)CCN3CCC2c1ccccc1 (centres unmarked) [Compound 775, N-methyl-1,7-diphenyl-1,2,3,5,6,7-hexahydropyrido[3,2,1-ij]quinoline-9-carboxamide] | 100% | 619 nM | –
COC(=O)Nc1cc2c3c(c1)C(c1cccc(F)c1)CCN3CCC2c1cccc(F)c1 (centres unmarked) [Compound 779, Methyl 1,7-bis(3-fluorophenyl)-1,2,3,5,6,7-hexahydropyrido[3,2,1-ij]quinolin-9-ylcarbamate] | 101% | – | –
COC(=O)Nc1cc2c3c(c1)[C@](C)(c1ccccc1)CCN3CC[C@@]2(C)c1ccccc1 [Compound 829, methyl (1S,7S)-1,7-dimethyl-1,7-diphenyl-1,2,3,5,6,7-hexahydropyrido[3,2,1-ij]quinolin-9-ylcarbamate] | 97% | – | 7 nM
CCOC(=O)Nc1cc2c3c(c1)[C@](C)(c1ccccc1)CCN3CC[C@@]2(C)c1ccccc1 [Compound 941, Ethyl (1S,7S)-1,7-dimethyl-1,7-diphenyl-1,2,3,5,6,7-hexahydropyrido[3,2,1-ij]quinolin-9-ylcarbamate] | 100% | – | 13 nM
CCCOC(=O)Nc1cc2c3c(c1)[C@](C)(c1ccccc1)CCN3CC[C@@]2(C)c1ccccc1 [Compound 942, Propyl (1S,7S)-1,7-dimethyl-1,7-diphenyl-1,2,3,5,6,7-hexahydropyrido[3,2,1-ij]quinolin-9-ylcarbamate] | 100% | – | 72 nM
CCCCOC(=O)Nc1cc2c3c(c1)[C@](C)(c1ccccc1)CCN3CC[C@@]2(C)c1ccccc1 [Compound 943, Butyl (1S,7S)-1,7-dimethyl-1,7-diphenyl-1,2,3,5,6,7-hexahydropyrido[3,2,1-ij]quinolin-9-ylcarbamate] | 100% | – | 75 nM
C[C@@]1(c2ccccc2)CCN2CC[C@@](C)(c3ccccc3)c3cc(NC(=O)OCCF)cc1c32 [Compound 944, 2-fluoroethyl (1S,7S)-1,7-dimethyl-1,7-diphenyl-1,2,3,5,6,7-hexahydropyrido[3,2,1-ij]quinolin-9-ylcarbamate] | 100% | – | 27 nM
C[C@@]1(c2ccccc2)CCN2CC[C@@](C)(c3ccccc3)c3cc(NC(=O)OCCCCl)cc1c32 [Compound 945, 3-chloropropyl (1S,7S)-1,7-dimethyl-1,7-diphenyl-1,2,3,5,6,7-hexahydropyrido[3,2,1-ij]quinolin-9-ylcarbamate] | 100% | – | 68 nM
O=C(Nc1cc2c3c(c1)C(c1ccccc1)CCN3CCC2c1ccccc1)N1CCOCC1 (centres unmarked) [Compound 983, N-(1,7-diphenyl-1,2,3,5,6,7-hexahydropyrido[3,2,1-ij]quinolin-9-yl)morpholine-4-carboxamide] | 100% | – | –
